Reference: patent US10626112B2, “Heterocyclic sulfonamide derivative and medicine comprising same” (EA PHARMA CO., LTD., priority 2014, dated 2020)

Biological target: human TRPA1 (Homo sapiens (Human), UniProt O75762)
Assay: Measurement of TRPA1 antagonist activity (1): intracellular calcium increase
Type: cell-based
Conditions: 293T cells transfected with human TRPA1 expression plasmid; allylisothiocyanate 20 μM stimulation; intracellular calcium fluorescence; read-out: hTRPA1 IC50
Excerpt: Measurement of TRPA1 Antagonist Activity (1)
Human TRPA1 Expression Plasmid
As cDNA encoding human TRPA1 (GenBank accession No. […]), a commercially available product was purchased (manufactured by Kazusa DNA Research Institute, clone No.: pFN21AB7348, item No.: FHC07217). Using this as a template, full-length human TRPA1 gene was amplified using the primer sequences shown below, by reaction using DNA polymerase (manufactured by Stratagene, trade name: PfuUltra High-Fidelity DNA Polymerase).
A recognition site (underlined) of restriction enzyme HindIII was added to the 5′ side, and XbaI site (underlined) was added to the 3′ side, and GTT of the template sequence was changed to termination codon TAG (bold). The obtained double stranded DNA was enzyme-digested with HindIII and XbaI, and introduced into the multicloning site of expression plasmid pcDNA3.1/zeo(+) (manufactured by Invitrogen) to construct a human TRPA1 expression plasmid.
Human embryonic kidney-derived 293T cells were cultured in Dulbecco's Modified Eagle Medium containing 10% fetal bovine serum, 10 unit penicillin, and 10 μg streptomycin, plated on a petri dish having a diameter of 10 cm at 3×10^6 cells, and cultured for 24 hr in a CO2 incubator. A reduced serum medium (manufactured by Invitrogen, trade name: OPTI-MEM, 600 μL), a gene transfer reagent (manufactured by Mirus Bio, trade name: Mirus TransIT-293, 18 μL), and human TRPA1 expression plasmid (6 μg) were mixed, the total amount of the mixture was added to the cells on the petri dish to allow for gene transfer. The cells were recovered about for 8 hr later, plated on a poly-D-lysine coated 384 well black/clear bottom plate at 12,000 cells/well, and cultured overnight.
Measurement of Intracellular Calcium Increase
The 384 well plate was recovered, and the medium was removed. A calcium-bonded fluorescent indicator (manufactured by Molecular Device, trade name: Calcium4 Assay Kit, 38 μL) dissolved in assay buffer (1×HBSS, 20 mM HEPES, pH 7.2) was added, and the cells were stained in a CO2 incubator for 1 hr. The cells were taken out at room temperature, stood for not less than 15 min, a test substance (10 μL) was added by a platereader FDSS7000 (Hamamatsu Photonics K.K.) equipped with a 384ch dispenser. After 10 min, allylisothiocyanate (12 μL) was further added at a final concentration of 20 μM, and changes in the relative fluorescence intensity after addition of allylisothiocyanate were measured for 5 min.
Test Substance Preparation
The test substance was dissolved in dimethyl sulfoxide and serially diluted with an assay buffer containing 0.1% bovine serum albumin (1×HBSS, 20 mM HEPES, pH 7.2) to a 4.8-fold concentration of the evaluation concentration. Allylisothiocyanate, which is a known TRPA1 activator, was dissolved in dimethyl sulfoxide to 100 mM, and further diluted 5-fold (100 μM) of the final concentration, like the test substance.
Calculation of Antagonist Activity
Under the test substance-free conditions, the maximum variation range of the fluorescence intensity before and after allylisothiocyanate stimulation was defined to be 100% activity rate, and the variation range before and after buffer stimulation was defined as 0% activity rate. The activity rate on addition of the test substance was determined, and the numerical value obtained by subtracting the activity rate from 100 was defined to be an inhibitory rate. IC50, which is the concentration of the test substance necessary for reaching the 50% inhibitory rate, was calculated from the sigmoid approximate curve by a spreadsheet software Excel-Fit.

Chain of human TRPA1 (O75762 whole entry): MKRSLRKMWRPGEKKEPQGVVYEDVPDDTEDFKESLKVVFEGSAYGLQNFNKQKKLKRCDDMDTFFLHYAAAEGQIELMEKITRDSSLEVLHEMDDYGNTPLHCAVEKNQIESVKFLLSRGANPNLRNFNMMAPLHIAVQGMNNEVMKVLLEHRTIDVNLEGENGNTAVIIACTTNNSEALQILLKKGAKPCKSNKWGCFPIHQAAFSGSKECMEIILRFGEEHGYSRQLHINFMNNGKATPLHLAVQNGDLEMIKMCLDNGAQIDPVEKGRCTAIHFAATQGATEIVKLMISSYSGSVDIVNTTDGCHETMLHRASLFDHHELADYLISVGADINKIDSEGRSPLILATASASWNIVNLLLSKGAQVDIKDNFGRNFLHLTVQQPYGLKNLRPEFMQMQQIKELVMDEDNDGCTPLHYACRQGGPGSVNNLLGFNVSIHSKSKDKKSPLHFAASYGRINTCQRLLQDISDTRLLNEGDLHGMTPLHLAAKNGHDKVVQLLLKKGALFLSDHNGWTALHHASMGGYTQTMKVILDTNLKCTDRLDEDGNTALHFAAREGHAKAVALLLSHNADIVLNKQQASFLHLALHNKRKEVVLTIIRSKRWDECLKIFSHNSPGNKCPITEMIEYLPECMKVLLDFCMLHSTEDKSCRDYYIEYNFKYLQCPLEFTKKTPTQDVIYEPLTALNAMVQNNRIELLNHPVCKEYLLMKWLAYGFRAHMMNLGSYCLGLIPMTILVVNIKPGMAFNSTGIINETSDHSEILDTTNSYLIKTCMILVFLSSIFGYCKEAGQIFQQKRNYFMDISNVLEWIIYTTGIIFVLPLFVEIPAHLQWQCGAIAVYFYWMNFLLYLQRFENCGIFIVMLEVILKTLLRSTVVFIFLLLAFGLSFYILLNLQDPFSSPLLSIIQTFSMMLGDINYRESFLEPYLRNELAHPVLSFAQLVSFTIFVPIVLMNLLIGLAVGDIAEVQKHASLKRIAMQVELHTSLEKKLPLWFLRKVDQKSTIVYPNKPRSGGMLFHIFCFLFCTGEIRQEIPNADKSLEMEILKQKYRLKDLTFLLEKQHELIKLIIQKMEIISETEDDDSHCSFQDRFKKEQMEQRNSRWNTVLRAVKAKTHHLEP

SMILES	IC50 [nM]
O=C(NCc1cccc(Oc2ccc(C(F)(F)F)cc2)c1)[C@@H]1CCCN1S(=O)(=O)c1cc2ccccc2o1 [Example 52, (2S)-1-(benzofuran-2-ylsulfonyl)-N-[[3-[4-(trifluoromethyl)phenoxy]phenyl]-methyl]pyrrolidine-2-carboxamide]	32
O=C(NCc1cccc(Oc2ccc(C(F)(F)F)cc2)c1)[C@@H]1CCCN1S(=O)(=O)c1cc2cc(F)ccc2o1 [Example 53, (2S)-1-(5-fluorobenzofuran-2-yl)sulfonyl-N-[[3-[4-(trifluoromethyl)phenoxy]phenyl]-methyl]pyrrolidine-2-carboxamide]	2.7
O=C(NCc1cccc(Oc2ccc(C(F)(F)F)nc2)c1)[C@@H]1CCCN1S(=O)(=O)c1cc2ccccc2o1 [Example 54, (2S)-1-(benzofuran-2-ylsulfonyl)-N-[[3-[[6-(trifluoromethyl)-3-pyridyl]oxy]phenyl]methyl]-pyrrolidine-2-carboxamide]	9
O=C(NCc1ccc(Oc2ccnc(C(F)(F)F)c2)cc1)[C@@H]1CCCN1S(=O)(=O)c1cc2ccccc2o1 [Example 55, (2S)-1-(benzofuran-2-ylsulfonyl)-N-[[4-[[2-(trifluoromethyl)-4-pyridyl]oxy]phenyl]methyl]-pyrrolidine-2-carboxamide]	88
O=C(NCc1ccc(Oc2ccnc(C(F)(F)F)c2)cc1)[C@@H]1CCCN1S(=O)(=O)c1cc2cc(F)ccc2o1 [Example 56, (2S)-1-(5-fluorobenzofuran-2-yl)sulfonyl-N-[[4-[[2-(trifluoromethyl)-4-pyridyl]oxy]phenyl]methyl]-pyrrolidine-2-carboxamide]	21
O=C(NCc1cccc(SCc2ccccc2)c1)[C@@H]1CCCN1S(=O)(=O)c1cc2ccccc2o1 [Example 57, (2S)-1-(benzofuran-2-ylsulfonyl)-N-[(3-benzylsulfanylphenyl)methyl]pyrrolidine-2-carboxamide]	16
O=C(NCc1ccc(COc2ccccc2)cc1)[C@@H]1CCCN1S(=O)(=O)c1cc2ccccc2o1 [Example 58, (2S)-1-(benzofuran-2-ylsulfonyl)-N-[[4-(phenoxymethyl)phenyl]methyl]-pyrrolidine-2-carboxamide]	430
O=C(NCc1cccc(F)c1)[C@@H]1CCCN1S(=O)(=O)c1cc2ccccc2o1 [Example 59, (2S)-1-(benzofuran-2-ylsulfonyl)-N-[(3-fluorophenyl)methyl]pyrrolidine-2-carboxamide]	540
O=C(NCc1cccc(Cl)c1)[C@@H]1CCCN1S(=O)(=O)c1cc2ccccc2o1 [Example 60, (2S)-1-(benzofuran-2-ylsulfonyl)-N-[(3-chlorophenyl)methyl]pyrrolidine-2-carboxamide]	200
O=C(NCc1cccc(C(F)(F)F)c1)[C@@H]1CCCN1S(=O)(=O)c1cc2ccccc2o1 [Example 61, (2S)-1-(benzofuran-2-ylsulfonyl)-N-[[3-(trifluoromethyl)phenyl]methyl]-pyrrolidine-2-carboxamide]	55
O=C(NCc1cccc(OC(F)(F)F)c1)[C@@H]1CCCN1S(=O)(=O)c1cc2ccccc2o1 [Example 62, (2S)-1-(benzofuran-2-ylsulfonyl)-N-[[3-(trifluoromethoxy)phenyl]methyl]-pyrrolidine-2-carboxamide]	60
O=C(NCc1ccc(OC(F)(F)F)cc1)[C@@H]1CCCN1S(=O)(=O)c1cc2ccccc2o1 [Example 63, (2S)-1-(benzofuran-2-ylsulfonyl)-N-[[4-(trifluoromethoxy)phenyl]methyl]-pyrrolidine-2-carboxamide]	60
O=C(NCc1ccccc1OC(F)(F)F)[C@@H]1CCCN1S(=O)(=O)c1cc2ccccc2o1 [Example 64, (2S)-1-(benzofuran-2-ylsulfonyl)-N-[[2-(trifluoromethoxy)phenyl]methyl]-pyrrolidine-2-carboxamide]	100
O=C(NCc1cccc(OC(F)(F)F)c1)[C@@H]1CCCN1S(=O)(=O)c1cc2cc(F)ccc2o1 [Example 65, (2S)-1-(5-fluorobenzofuran-2-yl)sulfonyl-N-[[3-(trifluoromethoxy)phenyl]methyl]-pyrrolidine-2-carboxamide]	15
O=C(NCc1ccc(OC(F)(F)F)cc1)[C@@H]1CCCN1S(=O)(=O)c1cc2cc(F)ccc2o1 [Example 66, (2S)-1-(5-fluorobenzofuran-2-yl)sulfonyl-N-[[4-(trifluoromethoxy)phenyl]methyl]-pyrrolidine-2-carboxamide]	21
O=C(NCc1cc(C(F)(F)F)ccc1Cl)[C@@H]1CCCN1S(=O)(=O)c1cc2ccccc2o1 [Example 67, (2S)-1-(benzofuran-2-ylsulfonyl)-N-[[2-chloro-5-(trifluoromethyl)phenyl]methyl]-pyrrolidine-2-carboxamide]	9.7
COc1c(F)ccc(CNC(=O)[C@@H]2CCCN2S(=O)(=O)c2cc3ccccc3o2)c1F [Example 68, (2S)-1-(benzofuran-2-ylsulfonyl)-N-[(2,4-difluoro-3-methoxy-phenyl)methyl]pyrrolidine-2-carboxamide]	390
O=C(NCc1ccc(OC(F)(F)F)c(F)c1)[C@@H]1CCCN1S(=O)(=O)c1cc2cc(F)ccc2o1 [Example 69, (2S)-1-(5-fluorobenzofuran-2-yl)sulfonyl-N-[[3-fluoro-4-(trifluoromethoxy)phenyl]methyl]-pyrrolidine-2-carboxamide]	12
O=C(NCc1ccc(F)c(OC(F)(F)F)c1)[C@@H]1CCCN1S(=O)(=O)c1cc2cc(F)ccc2o1 [Example 70, (2S)-1-(5-fluorobenzofuran-2-yl)sulfonyl-N-[[4-fluoro-3-(trifluoromethoxy)phenyl]methyl]-pyrrolidine-2-carboxamide]	11
O=C(NCc1cc(OC(F)(F)F)ccc1F)[C@@H]1CCCN1S(=O)(=O)c1cc2cc(F)ccc2o1 [Example 71, (2S)-1-(5-fluorobenzofuran-2-yl)sulfonyl-N-[[2-fluoro-5-(trifluoromethoxy)phenyl]methyl]-pyrrolidine-2-carboxamide]	3.2
C[C@H](NS(=O)(=O)c1cc2ccccc2o1)C(=O)NCc1cc(C(F)(F)F)ccc1Cl [Example 72, (2S)-2-(benzofuran-2-ylsulfonylamino)-N-[[2-chloro-5-(trifluoromethyl)phenyl]methyl]-propanamide]	350
C[C@H](NS(=O)(=O)c1cc2cc(F)ccc2o1)C(=O)NCc1cc(OC(F)(F)F)ccc1F [Example 73, (2S)-2-[(5-fluorobenzofuran-2-yl)sulfonylamino]-N-[[2-fluoro-5-(trifluoromethoxy)phenyl]methyl]-propanamide]	160
O=C(NCc1ccc2occc2c1)[C@@H]1CCCN1S(=O)(=O)c1cc2cc(F)ccc2o1 [Example 74, (2S)-N-(benzofuran-5-ylmethyl)-1-(5-fluorobenzofuran-2-yl)sulfonyl-pyrrolidine-2-carboxamide]	110
O=C(NCc1ccc(-c2ccccc2)cc1)[C@@H]1CCCN1S(=O)(=O)c1cc2cc(F)ccc2o1 [Example 76, (2S)-1-(5-fluorobenzofuran-2-yl)sulfonyl-N-[(4-phenylphenyl)methyl]pyrrolidine-2-carboxamide]	47
O=C(NCc1cccc(-c2ccccc2)c1)[C@@H]1CCCN1S(=O)(=O)c1cc2cc(F)ccc2o1 [Example 77, (2S)-1-(5-fluorobenzofuran-2-yl)sulfonyl-N-[(3-phenylphenyl)methyl]pyrrolidine-2-carboxamide]	15
O=C(NCc1ccccc1-c1ccccc1)[C@@H]1CCCN1S(=O)(=O)c1cc2cc(F)ccc2o1 [Example 78, (2S)-1-(5-fluorobenzofuran-2-yl)sulfonyl-N-[(2-phenylphenyl)methyl]pyrrolidine-2-carboxamide]	130
